Reference: article doi:10.1101/2022.07.25.501481v1 (biorxiv, 2022)

Biological target: T1, BT4193 (Bacteroides thetaiotaomicron, UniProt Q8A028)
T1 sequence (Q8A028 20-736): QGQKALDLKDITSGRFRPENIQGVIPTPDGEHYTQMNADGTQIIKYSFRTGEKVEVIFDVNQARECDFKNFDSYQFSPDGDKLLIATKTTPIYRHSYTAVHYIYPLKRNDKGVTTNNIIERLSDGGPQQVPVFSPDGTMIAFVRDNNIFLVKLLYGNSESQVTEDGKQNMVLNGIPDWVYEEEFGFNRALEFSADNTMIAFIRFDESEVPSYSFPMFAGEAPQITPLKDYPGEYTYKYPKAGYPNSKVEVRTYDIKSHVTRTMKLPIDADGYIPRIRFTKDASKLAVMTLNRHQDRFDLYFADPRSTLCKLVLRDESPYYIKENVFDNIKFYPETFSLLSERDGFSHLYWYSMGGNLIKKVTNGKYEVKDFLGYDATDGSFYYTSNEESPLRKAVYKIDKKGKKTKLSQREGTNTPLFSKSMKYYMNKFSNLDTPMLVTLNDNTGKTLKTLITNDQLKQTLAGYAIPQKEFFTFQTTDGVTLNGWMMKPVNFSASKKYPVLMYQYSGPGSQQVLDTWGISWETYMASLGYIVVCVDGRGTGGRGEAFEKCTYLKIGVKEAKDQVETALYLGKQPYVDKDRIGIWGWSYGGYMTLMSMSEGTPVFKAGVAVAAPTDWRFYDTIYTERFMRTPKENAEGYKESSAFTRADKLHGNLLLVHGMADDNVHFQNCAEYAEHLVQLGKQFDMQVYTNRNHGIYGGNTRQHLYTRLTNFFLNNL
Test: GP-AMC cleavage fluorescence, dose-response four-parameter fit
Type: biochemical

| SMILES | IC50 |
| --- | --- |
| CC#CCn1c(N2CCC[C@@H](N)C2)nc2c1c(=O)n(Cc1nc(C)c3ccccc3n1)c(=O)n2C [linagliptin] | 0.445 ± 0.023 µM |
| N#C[C@@H]1C[C@@H]2C[C@@H]2N1C(=O)[C@@H](N)C12CC3CC(CC(O)(C3)C1)C2 [saxagliptin] | 0.0103 ± 0.0007 µM |
| N[C@@H](CC(=O)N1CCn2c(nnc2C(F)(F)F)C1)Cc1cc(F)c(F)cc1F [sitagliptin] | 2.15 ± 0.162 µM |
| CC(C)[C@H](N)C(=O)N1CCC[C@H]1B(O)O [talabostat] | 0.0124 ± 0.0001 µM |
